Results as given in ChEMBL document CHEMBL3868595, “Plazomicin is effective in a non-human primate pneumonic plague model” (Bioorg Med Chem, 2016).

Experiments:
[1] = Cmax in African green monkey blood at 35 mg/kg administered as iv infusion twice daily for 7 consecutive days measured on day 1 by LC-MS/MS analysis; format: ADME, organism-based; set-up: dose 35 mg/kg, route intravenous; settings: chlorocebus aethiops
[2] = AUC (0 to 24 hrs) in African green monkey blood at 35 mg/kg administered as iv infusion twice daily for 7 consecutive days measured on day 1 by LC-MS/MS analysis; format: ADME, organism-based; set-up: dose 35 mg/kg, time < 24 hr, route intravenous; settings: chlorocebus aethiops
[3] = Elimination half life in African green monkey blood at 25 mg/kg administered as iv infusion twice daily for 7 consecutive days measured on day 1 by LC-MS/MS analysis; format: ADME, organism-based; settings: chlorocebus aethiops, read-out: beta t1/2 (converted)
[4] = Volume of distribution at steady state in African green monkey blood at 25 mg/kg administered as iv infusion twice daily for 7 consecutive days measured on day 1 by LC-MS/MS analysis; format: ADME, organism-based; settings: chlorocebus aethiops, read-out: Vdss
[5] = Volume of distribution at steady state in African green monkey blood at 25 mg/kg administered as iv infusion twice daily for 7 consecutive days measured on day 7 by LC-MS/MS analysis; format: ADME, organism-based; settings: chlorocebus aethiops, read-out: Vdss
Yersinia pestis [6] = experiment: Antibacterial activity against Yersinia pestis Colorado 92 infected in African green monkey B6469 model assessed as bacterial burden in lung at 25 mg/kg, iv administered within 6 hrs post onset of sustained fever as 30 mins infusion for 5 days (reference value: 7.7 10^8CFU/g); format: functional, CO92
Yersinia pestis [7] = experiment: Antibacterial activity against Yersinia pestis Colorado 92 infected in African green monkey 8047 model assessed as bacterial burden in spleen at 6.25 mg/kg, iv administered within 6 hrs post onset of sustained fever as 30 mins infusion for 10 days (reference value: 1.6 10^9CFU/g); format: functional, CO92
Yersinia pestis [8] = experiment: Antibacterial activity against Yersinia pestis Colorado 92 infected in African green monkey C2083 model assessed as bacterial burden in kidney at 12.5 mg/kg, iv administered within 6 hrs post onset of sustained fever as 30 mins infusion for 5 days (reference value: 7.1 10^7CFU/g); format: functional, CO92
Yersinia pestis [9] = experiment: Antibacterial activity against Yersinia pestis Colorado 92 infected in African green monkey B6672 model assessed as bacterial burden in tracheobronchial lymph nodes at 12.5 mg/kg, iv administered within 6 hrs post onset of sustained fever as 30 mins infusion for 5 days (reference value: 7.7 10^9CFU/g); format: functional, CO92, Lymph node
Yersinia pestis [10] = experiment: Antibacterial activity against Yersinia pestis Colorado 92 infected in African green monkey B6783 model assessed as bacterial burden in tracheobronchial lymph nodes at 12.5 mg/kg, iv administered within 6 hrs post onset of sustained fever as 30 mins infusion for 5 days (reference value: 7.7 10^9CFU/g); format: functional, CO92, Lymph node
Yersinia pestis [11] = experiment: Antibacterial activity against Yersinia pestis Colorado 92 infected in African green monkey 8047 model assessed as bacterial burden in tracheobronchial lymph nodes at 6.25 mg/kg, iv administered within 6 hrs post onset of sustained fever as 30 mins infusion for 10 days (reference value: 7.7 10^9CFU/g); format: functional, CO92, Lymph node
Yersinia pestis [12] = experiment: Antibacterial activity against Yersinia pestis Colorado 92 infected in African green monkey B6873 model assessed as bacterial burden in brain at 12.5 mg/kg, iv administered within 6 hrs post onset of sustained fever as 30 mins infusion for 5 days (reference value: 1.9 10^6CFU/g); format: functional, CO92
Yersinia pestis [13] = experiment: Antibacterial activity against Yersinia pestis Colorado 92 infected in African green monkey C2149 model assessed as bacterial burden in brain at 6.25 mg/kg, iv administered within 6 hrs post onset of sustained fever as 30 mins infusion for 5 days (reference value: 1.9 10^6CFU/g); format: functional, CO92
African green monkey [14] = experiment: Toxicity in African green monkey B5994 model infected with Yersinia pestis Colorado 92 assessed as blood urea nitrogen level at 25 mg/kg, iv administered within 6 hrs post onset of sustained fever as 30 mins infusion for 10 days (reference value: 15 mg/dl); format: organism-based; settings: chlorocebus sabaeus, in vivo
African green monkey [15] = experiment: Toxicity in African green monkey 7929 model infected with Yersinia pestis Colorado 92 assessed as blood urea nitrogen level at 25 mg/kg, iv administered within 6 hrs post onset of sustained fever as 30 mins infusion for 10 days (reference value: 15 mg/dl); format: organism-based; settings: chlorocebus sabaeus, in vivo
African green monkey [16] = experiment: Toxicity in African green monkey B6428 model infected with Yersinia pestis Colorado 92 assessed as serum creatinine level at 25 mg/kg, iv administered within 6 hrs post onset of sustained fever as 30 mins infusion for 10 days (reference value: 0.8 mg/dl); format: organism-based; settings: chlorocebus sabaeus, in vivo
African green monkey [17] = experiment: Toxicity in African green monkey 7337 model infected with Yersinia pestis Colorado 92 assessed as serum creatinine level at 25 mg/kg, iv administered within 6 hrs post onset of sustained fever as 30 mins infusion for 10 days (reference value: 0.7 mg/dl); format: organism-based; settings: chlorocebus sabaeus, in vivo
African green monkey [18] = experiment: Toxicity in African green monkey B6140 model infected with Yersinia pestis Colorado 92 assessed as serum gamma glutamyl-transferase level at 25 mg/kg, iv administered within 6 hrs post onset of sustained fever as 30 mins infusion for 10 days (reference value: 55 IU/L); format: organism-based; settings: chlorocebus sabaeus, in vivo
African green monkey [19] = experiment: Toxicity in African green monkey 8067 model infected with Yersinia pestis Colorado 92 assessed as serum gamma glutamyl-transferase level at 25 mg/kg, iv administered within 6 hrs post onset of sustained fever as 30 mins infusion for 10 days (reference value: 40 IU/L); format: organism-based; settings: chlorocebus sabaeus, in vivo
African green monkey [20] = experiment: Toxicity in African green monkey B6408 model infected with Yersinia pestis Colorado 92 assessed as serum lactate dehydrogenase level at 25 mg/kg, iv administered within 6 hrs post onset of sustained fever as 30 mins infusion for 10 days (reference value: 249 IU/L); format: organism-based; settings: chlorocebus sabaeus, in vivo
African green monkey [21] = experiment: Toxicity in African green monkey B6291 model infected with Yersinia pestis Colorado 92 assessed as serum lactate dehydrogenase level at 25 mg/kg, iv administered within 6 hrs post onset of sustained fever as 30 mins infusion for 10 days (reference value: 212 IU/L); format: organism-based; settings: chlorocebus sabaeus, in vivo
African green monkey [22] = experiment: Toxicity in African green monkey 7929 model infected with Yersinia pestis Colorado 92 assessed as serum lactate dehydrogenase level at 25 mg/kg, iv administered within 6 hrs post onset of sustained fever as 30 mins infusion for 10 days (reference value: 653 IU/L); format: organism-based; settings: chlorocebus sabaeus, in vivo
African green monkey [23] = experiment: Toxicity in African green monkey 7643 model infected with Yersinia pestis Colorado 92 assessed as serum lactate dehydrogenase level at 25 mg/kg, iv administered within 6 hrs post onset of sustained fever as 30 mins infusion for 10 days (reference value: 278 IU/L); format: organism-based; settings: chlorocebus sabaeus, in vivo
[24] = Toxicity in African green monkey B6140 model infected with Yersinia pestis Colorado 92 assessed as total white blood cell count at 25 mg/kg, iv administered within 6 hrs post onset of sustained fever as 30 mins infusion for 10 days (reference value: 6.8 10^3/microL); format: organism-based; settings: chlorocebus aethiops, in vivo
[25] = Toxicity in African green monkey 7337 model infected with Yersinia pestis Colorado 92 assessed as total white blood cell count at 25 mg/kg, iv administered within 6 hrs post onset of sustained fever as 30 mins infusion for 10 days (reference value: 7.5 10^3/microL); format: organism-based; settings: chlorocebus aethiops, in vivo
[26] = Toxicity in African green monkey 7653 model infected with Yersinia pestis Colorado 92 assessed as total white blood cell count at 25 mg/kg, iv administered within 6 hrs post onset of sustained fever as 30 mins infusion for 10 days (reference value: 7.5 10^3/microL); format: organism-based; settings: chlorocebus aethiops, in vivo

Question: For CN[C@@H]1[C@@H](O)[C@@H](O[C@@H]2[C@@H](O)[C@H](O[C@H]3OC(CNCCO)=CC[C@H]3N)[C@@H](N)C[C@H]2NC(=O)[C@@H](O)CCN)OC[C@]1(C)O [PLAZOMICIN], which Cmax [1] is on record?
Answer: 176 µg/mL

Question: What about the AUC(0-t) at 24 h [2] of the same compound?
Answer: 306 µg·h/mL

Question: And the half-life [3]?
Answer: 1.8 h

Question: And the Vd [4]?
Answer: 0.33 L/kg

Question: And the Vd [5]?
Answer: 0.36 L/kg

Question: And the Activity (Yersinia pestis [6])?
Answer: 21 CFU/g

Question: And the Activity (Yersinia pestis [7])?
Answer: 19 CFU/g

Question: And the Activity (Yersinia pestis [8])?
Answer: 3.1 ×10⁶ CFU/g

Question: And the Activity (Yersinia pestis [9])?
Answer: 8.3 ×10⁶ CFU/g

Question: What about the Activity (Yersinia pestis [10]) of the same compound?
Answer: 6.3 ×10⁹ CFU/g

Question: And the Activity (Yersinia pestis [11])?
Answer: 2 ×10⁹ CFU/g

Question: And the Activity (Yersinia pestis [12])?
Answer: 44 CFU/g

Question: What about the Activity (Yersinia pestis [13]) of the same compound?
Answer: 46 CFU/g

Question: What about the Activity (African green monkey [14]) of the same compound?
Answer: 18 mg/dL

Question: What about the Activity (African green monkey [15]) of the same compound?
Answer: 17 mg/dL

Question: What about the Activity (African green monkey [16]) of the same compound?
Answer: 0.6 mg/dL

Question: And the Activity (African green monkey [17])?
Answer: 0.5 mg/dL

Question: What about the Activity (African green monkey [18]) of the same compound?
Answer: 39 IU/L

Question: What about the Activity (African green monkey [19]) of the same compound?
Answer: 26 IU/L

Question: And the Activity (African green monkey [20])?
Answer: 304 IU/L

Question: And the Activity (African green monkey [21])?
Answer: 259 IU/L

Question: What about the Activity (African green monkey [22]) of the same compound?
Answer: 496 IU/L

Question: What about the Activity (African green monkey [23]) of the same compound?
Answer: 606 IU/L

Question: What about the Activity [24] of the same compound?
Answer: 7.2 ×10³ /uL

Question: And the Activity [25]?
Answer: 5 ×10³ /uL

Question: What about the Activity [26] of the same compound?
Answer: 5.8 ×10³ /uL
